This data set can be described thus: LC/MS retention time of standard compounds and sponge extract (in-house platform). On the set-up: RT (retention time): unit not given here. In kind it is physicochemical. The procedure:
Total 22 compounds and 9 PNPA standards covering a long time-range were purchased as reference standards (Table 1). Each standard compound was experimentally measured with our in-house LC/MS platform with conditions in Supporting Table 1, available as supplementary data at Bioinformatics Advances online.
The resulting extract was dissolved in methanol and subjected to LC/MS analysis with conditions in Supporting Table 1, available as supplementary data at Bioinformatics Advances online, for metabolite profiling.

The mark [1] stands for this setting: purchased PNPA standard, in-house LC/MS platform, conditions in Supporting Table 1 (not shown), retention time related to hydrophobic/hydrophilic substructures, unit not given.

Read-outs that look alike come from different tables or passages of the source.

From publication PMC12643230, “Retention order prediction of peptides containing non-proteinogenic amino acids” (Bioinformatics Advances, 2025) come the findings set out here.

`C=CC/C(=N/OS(=O)(=O)O)S[C@@H]1O[C@H](CO)[C@@H](O)[C@H](O)[C@H]1O` [2-Propenyl glucosinolate] yielded an RT (retention time of the reference compound) (LC/MS, in-house platform, reference compound used for retention order comparison, sheet COCONUT) of 1.74 min. As to α-Amanitin, under setting [1], the “RT (retention time)” value is reported as 3.41. On the same count and under the same terms, under [Arg8]-Vasopressin stands 3.11; under Gramicidin A, 9.19. With Bacitracin, the “RT (retention time)” value turned out to be 4.67.

As for Jaspamide [Measured compound], the “Retention order of the measured compound against reference compound 2-Propenyl glucosinolate (binary 1/0)” value (column 'Measured compound', reference RT 1.74, observed order, no key for 1/0 printed, sheet COCONUT) came out at 1. Further, the “RT (retention time) of measured compound” value (compound detected in methanol extract of marine sponge Jaspis splendens, same in-house LC/MS conditions (Supporting Table 1), annotated as Jaspamide via retention order and MS/MS, unit not given) worked out at 8.45. As for `C/C(=C\c1csc(C)n1)[C@@H]1C[C@@H]2O[C@]2(C)CCC[C@H](C)[C@H](O)[C@@H](C)C(=O)C(C)(C)[C@@H](O)CC(=O)O1` [Epothilone B], the “RT (retention time)” value under setting [1] is 7.67.
